From ChEMBL document CHEMBL1201862, “PubChem BioAssay data set” (2004)
The source made the active and inactive calls. Rule as the data show it, for most assays here: actives have a measured EC50 and inactives only a lower limit.

Key:
Protein RecA = biological target: T1, Protein RecA (Mycobacterium tuberculosis, UniProt P9WHJ3); assay: Fluorescence Cell-Free Homogeneous Dose Retest to Identify Inhibitors of RecA-Intein Splicing Activity. [Related pubchem assays (depositor defined):AID2097, AID2223, AID489010, AID492950]; assay type: functional
T1 sequence (P9WHJ3 whole entry): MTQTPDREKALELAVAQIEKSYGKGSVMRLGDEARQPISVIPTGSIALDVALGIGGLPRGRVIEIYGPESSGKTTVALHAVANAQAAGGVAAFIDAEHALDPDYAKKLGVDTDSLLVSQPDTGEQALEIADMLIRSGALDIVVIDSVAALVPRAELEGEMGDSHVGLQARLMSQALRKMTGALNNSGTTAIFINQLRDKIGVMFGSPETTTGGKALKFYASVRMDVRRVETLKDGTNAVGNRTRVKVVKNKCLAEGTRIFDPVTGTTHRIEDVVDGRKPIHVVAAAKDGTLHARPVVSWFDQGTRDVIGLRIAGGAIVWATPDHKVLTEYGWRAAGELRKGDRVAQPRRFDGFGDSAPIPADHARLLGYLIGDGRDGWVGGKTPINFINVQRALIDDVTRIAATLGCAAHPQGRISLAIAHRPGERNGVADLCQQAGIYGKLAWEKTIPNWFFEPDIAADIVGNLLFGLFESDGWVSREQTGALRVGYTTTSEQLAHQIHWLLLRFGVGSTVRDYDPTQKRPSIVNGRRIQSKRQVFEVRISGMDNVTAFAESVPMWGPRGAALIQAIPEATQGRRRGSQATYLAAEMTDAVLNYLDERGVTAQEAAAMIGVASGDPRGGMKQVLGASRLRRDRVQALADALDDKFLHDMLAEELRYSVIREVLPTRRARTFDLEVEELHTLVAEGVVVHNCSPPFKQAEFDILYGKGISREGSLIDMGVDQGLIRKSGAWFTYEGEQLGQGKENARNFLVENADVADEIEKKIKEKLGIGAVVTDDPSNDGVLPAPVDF

[1] = biological target: T2, Replicative DNA helicase DnaB (Mycobacterium tuberculosis, UniProt P9WMR3); assay: DnaB intein splicing inhibitors, dose response, biochemical, cell-free fluorescence (AID 449749); assay type: functional
T2 sequence (P9WMR3 whole entry): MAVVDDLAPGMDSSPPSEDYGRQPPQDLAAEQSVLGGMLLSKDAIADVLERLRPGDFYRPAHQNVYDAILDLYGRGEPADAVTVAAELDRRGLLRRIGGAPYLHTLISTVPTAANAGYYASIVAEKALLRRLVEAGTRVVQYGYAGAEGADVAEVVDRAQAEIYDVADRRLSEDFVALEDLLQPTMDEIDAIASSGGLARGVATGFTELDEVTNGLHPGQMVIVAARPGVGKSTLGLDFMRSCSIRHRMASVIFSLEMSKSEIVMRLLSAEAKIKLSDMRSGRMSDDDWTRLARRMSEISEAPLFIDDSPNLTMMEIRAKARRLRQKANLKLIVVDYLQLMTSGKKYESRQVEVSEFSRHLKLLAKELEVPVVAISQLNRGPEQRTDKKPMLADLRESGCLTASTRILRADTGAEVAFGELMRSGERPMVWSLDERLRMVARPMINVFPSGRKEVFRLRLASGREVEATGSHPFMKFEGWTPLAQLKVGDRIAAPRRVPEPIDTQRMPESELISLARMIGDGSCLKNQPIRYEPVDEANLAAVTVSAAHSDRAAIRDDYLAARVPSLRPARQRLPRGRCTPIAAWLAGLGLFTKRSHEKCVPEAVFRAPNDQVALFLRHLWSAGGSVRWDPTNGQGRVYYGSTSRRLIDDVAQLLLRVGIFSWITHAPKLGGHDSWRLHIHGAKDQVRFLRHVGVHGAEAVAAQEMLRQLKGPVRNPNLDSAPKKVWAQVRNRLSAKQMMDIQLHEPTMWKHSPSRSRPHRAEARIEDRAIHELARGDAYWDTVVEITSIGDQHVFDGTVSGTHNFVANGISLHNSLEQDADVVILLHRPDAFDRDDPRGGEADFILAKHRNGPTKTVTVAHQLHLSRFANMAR

[2] = DRD fibroblast viability loss – cell-based, non-viral oncogenic, luminescence, dose response (AID 1934); assay type: functional; conditions: Homo sapiens
BJ [3] = assay: cells; assay type: functional, cell-based; conditions: Homo sapiens
BJ [4] = assay: BJ-TERT fibroblast viability loss – cell-based, RAS-independent, luminescence, dose response (AID 1933); assay type: functional; conditions: Homo sapiens
BJ [5] = assay: BJ-TERT-LT-ST fibroblast viability loss – cell-based, RAS-independent, luminescence, dose response (AID 1935); assay type: functional; conditions: Homo sapiens;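 also: BJ fibroblasts immortalized with TERT plus LT and ST oncogenes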
[6] = biological target: T3, Calpain-2 catalytic subunit (Sus scrofa, UniProt P43367); assay: m-calpain protease blockers, concentration series – biochemical, fluorogenic peptide substrate, dose response (AID 1420); assay type: functional
T3 sequence (P43367 whole entry): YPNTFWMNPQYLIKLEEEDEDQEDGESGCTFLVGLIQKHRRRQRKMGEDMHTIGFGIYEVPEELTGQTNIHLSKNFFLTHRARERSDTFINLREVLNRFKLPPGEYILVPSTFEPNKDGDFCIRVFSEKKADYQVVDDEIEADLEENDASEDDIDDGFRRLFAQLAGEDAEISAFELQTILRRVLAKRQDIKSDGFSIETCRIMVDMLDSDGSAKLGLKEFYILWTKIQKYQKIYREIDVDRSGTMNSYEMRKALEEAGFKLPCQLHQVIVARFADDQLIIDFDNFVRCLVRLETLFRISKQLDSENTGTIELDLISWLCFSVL

[7] = alpha-synuclein stem-loop luciferase translation blockers – H4 neuroglioma cells, luminescence, confirmation (AID 1988); assay type: functional, cell-based
[8] = Luminescence Cell-Based Dose Response HTS to Identify Inhibitors of 5'UTR Stem-Loop Driven Prion Protein mRNA Translation in H4 Neuroglioblastoma Cells. [Related pubchem assays: 1827 (Project Summary), 1813 (Primary HTS)]; assay type: functional
cells = assay type: functional
[9] = luciferase reporter signal suppression in cells – H4 neuroglioma cells, luminescence, dose response (AID 1990); assay type: functional, cell-based
[10] = biological target: T4, Rac GTPase-activating protein 1 (Homo sapiens, UniProt Q9H0H5); assay: blockers of MgcRacGAP-driven Rac1 GTP hydrolysis – biochemical, ADP Hunter fluorescence, primary and confirmatory, confirmation (AID 624330); assay type: functional
T4 sequence (Q9H0H5 whole entry): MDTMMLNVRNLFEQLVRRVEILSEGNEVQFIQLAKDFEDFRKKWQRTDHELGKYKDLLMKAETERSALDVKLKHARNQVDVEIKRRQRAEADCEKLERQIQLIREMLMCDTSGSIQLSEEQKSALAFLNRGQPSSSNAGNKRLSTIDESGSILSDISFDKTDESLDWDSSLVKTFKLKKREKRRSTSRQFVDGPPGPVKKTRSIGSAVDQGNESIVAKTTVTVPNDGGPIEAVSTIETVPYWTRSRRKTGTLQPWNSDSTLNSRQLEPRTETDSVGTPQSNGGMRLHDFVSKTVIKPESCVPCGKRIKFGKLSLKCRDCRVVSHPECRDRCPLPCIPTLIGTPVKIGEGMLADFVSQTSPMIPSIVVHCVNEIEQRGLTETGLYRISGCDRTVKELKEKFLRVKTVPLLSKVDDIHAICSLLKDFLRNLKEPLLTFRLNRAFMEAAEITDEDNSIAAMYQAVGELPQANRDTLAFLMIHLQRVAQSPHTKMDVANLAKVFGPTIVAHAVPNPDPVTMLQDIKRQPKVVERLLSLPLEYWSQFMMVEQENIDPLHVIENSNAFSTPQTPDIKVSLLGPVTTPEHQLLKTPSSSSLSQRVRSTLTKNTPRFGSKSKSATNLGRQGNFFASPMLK

H4 = assay: Luminescence Cell-Based Dose Response HTS to Identify Activators of 5'UTR Stem-Loop Driven Prion Protein mRNA Translation in H4 Neuroglioblastoma Cells. [Related pubchem assays: 1829 (Project Summary), 1814 (Primary HTS)]; assay type: functional; conditions: Homo sapiens
[11] = Luminescence Cell-Based Dose Response HTS to Identify Activators of Luciferase Translation or Activity in H4 […] Cells. [Related pubchem assays: 1829 (Project Summary), 1814 (Primary HTS)]; assay type: functional
[12] = Luminescence Cell-Based Dose Confirmation HTS to Identify Inhibitors of Platelet Dense Granule Release. [Related pubchem assays: 1663 (Primary HTS), 1678 (Summary of Project)]; assay type: functional
[13] = biological target: T5, Heat shock factor protein 1 (Mus musculus, UniProt P38532); assay: decrease of HSF1-responsive luciferase luminescence – cell-based, NIH3T3, dose retest, confirmation (AID 2382); assay type: functional;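 also: NIH3T3 fibroblasts with HSF1-driven luciferase reporter stressed by proteasome inhibitor MG132; luminescence from HSF1-driven luciferase expression after 8 hours of MG132 stress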
T5 sequence (P38532 whole entry): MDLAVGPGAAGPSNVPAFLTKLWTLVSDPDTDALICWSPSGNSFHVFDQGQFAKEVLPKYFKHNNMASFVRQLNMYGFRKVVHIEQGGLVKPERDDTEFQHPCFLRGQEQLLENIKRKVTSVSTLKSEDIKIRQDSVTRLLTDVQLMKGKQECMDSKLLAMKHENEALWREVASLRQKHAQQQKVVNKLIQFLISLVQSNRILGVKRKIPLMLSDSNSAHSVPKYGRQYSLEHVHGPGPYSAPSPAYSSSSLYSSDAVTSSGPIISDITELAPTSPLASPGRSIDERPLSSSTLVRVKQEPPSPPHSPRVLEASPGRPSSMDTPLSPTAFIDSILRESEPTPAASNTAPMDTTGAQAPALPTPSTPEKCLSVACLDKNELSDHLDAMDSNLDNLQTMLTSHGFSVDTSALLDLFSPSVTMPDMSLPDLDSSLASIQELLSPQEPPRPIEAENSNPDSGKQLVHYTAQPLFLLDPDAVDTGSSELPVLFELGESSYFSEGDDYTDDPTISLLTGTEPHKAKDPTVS

[14] = biological target: Luciferin 4-monooxygenase (Photinus pyralis, UniProt P08659); assay: inhibition of purified Photinus pyralis luciferase – biochemical, luminescence, dose response (AID 1891)
Luciferin 4-monooxygenase, sequence (P08659 whole entry): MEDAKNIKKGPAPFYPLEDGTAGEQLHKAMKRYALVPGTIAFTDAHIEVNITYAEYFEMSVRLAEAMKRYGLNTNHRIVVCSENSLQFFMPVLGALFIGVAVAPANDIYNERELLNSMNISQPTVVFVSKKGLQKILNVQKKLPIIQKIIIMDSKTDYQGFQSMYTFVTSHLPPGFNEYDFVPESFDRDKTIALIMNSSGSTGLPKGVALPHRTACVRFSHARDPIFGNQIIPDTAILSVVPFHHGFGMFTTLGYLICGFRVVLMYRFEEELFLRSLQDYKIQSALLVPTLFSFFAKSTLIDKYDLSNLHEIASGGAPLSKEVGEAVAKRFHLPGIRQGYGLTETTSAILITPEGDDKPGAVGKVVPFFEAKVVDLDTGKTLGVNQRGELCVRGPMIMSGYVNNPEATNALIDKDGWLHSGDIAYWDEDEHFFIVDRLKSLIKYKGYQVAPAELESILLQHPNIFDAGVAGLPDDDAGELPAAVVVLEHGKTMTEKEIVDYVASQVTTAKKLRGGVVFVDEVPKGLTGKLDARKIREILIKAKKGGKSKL

SMILES: O=C(O)COc1cccc(/C=C2/SC(=S)N(Cc3ccccc3)C2=O)c1
- EC50 (Protein RecA): 10.1 µM (active)
- AC50 [1]: 9.8 µM (active)
- EC50 [2]: > 150 µM (not active)
- EC50 (BJ [3]): > 150 µM (not active)
- EC50 (BJ [4]): > 150 µM (not active)
- EC50 (BJ [5]): > 150 µM (inconclusive)

SMILES: CCOC(=O)c1c(NC(=O)CNC2CCCCC2)sc(C)c1C
- IC50 [6]: 6.04 µM (not active)

SMILES: CN(C)c1ccc2nc3ccc(N(C)C)cc3[s+]c2c1 [METHYLENE BLUE ANHYDROUS]
- EC50 [7]: 5.46 µM (inconclusive)
- EC50 [8]: 11.1 µM (inconclusive)

SMILES: O=S(=O)(c1ccc2c(c1)OCCO2)N1CCc2ccccc21
- IC50 [6]: > 50 µM (not active)

SMILES: O=Cc1ccc(-n2nncc2-c2ccc([N+](=O)[O-])cc2)cc1
- IC50 [6]: 12.6 µM (not active)

SMILES: O=C(CCSc1ccccn1)c1ccccc1
- IC50 (cells): 23.2 µM (active)

SMILES: CCOC(=O)CN1N=C(/C=C/c2ccc(C(C)C)cc2)CCC1=O
- IC50 [6]: 9.2 µM (active)

SMILES: CCOC(=O)c1c(C)nc2sc3c(=O)n(-c4ccc(OC)cc4)cnc3c2c1-c1ccc(OC)cc1
- EC50 [7]: 21.1 µM (active)
- EC50 [8]: > 120 µM (not active)
- EC50 [9]: 12.9 µM (active)

SMILES: Cn1nnc(NC(=O)COc2ccc(C3CCCCC3)cc2)n1
- IC50 (cells): 23.3 µM (active)

SMILES: CCC(C)C(=O)Nc1ccc([N+](=O)[O-])cc1OC (stereo not given)
- IC50 [6]: 16.1 µM (not active)

SMILES: CCCCNc1nc(NC)nc(Cl)c1SC
- EC50 [7]: > 120 µM (not active)
- EC50 [8]: > 120 µM (not active)
- EC50 [9]: > 120 µM (not active)

SMILES: COc1ccc(C2CC(C(F)(F)F)n3ncc(C(=O)Nc4cccc(O)c4)c3N2)cc1OC (stereo not given)
- EC50 [7]: 54.7 µM (active)
- EC50 [8]: 23.2 µM (active)
- EC50 [9]: 20.3 µM (active)

SMILES: CCOC(=O)c1ccc(NC(=O)Nc2ncccc2C)cc1
- IC50 [6]: 12.4 µM (not active)

SMILES: COc1cc(OC)cc(C(=O)NCCN2CCOCC2)c1
- IC50 [6]: 48.3 µM (not active)

SMILES: COc1cc(/C=C2\C(=O)N(CCC#N)N=C2C)ccc1OCC(=O)Nc1ccccc1
- IC50 [10]: 144 µM (active)
- EC50 (Protein RecA): 2.79 µM (active)
- AC50 [1]: 3.74 µM (active)
- EC50 (H4): 64.8 µM (active)
- EC50 [11]: < 0.1 µM (active)

SMILES: CCOC(=O)Cn1c(C)c(Br)c(=O)c2cccc(C)c21
- IC50 (cells): 11.2 µM (active)

SMILES: Cc1ccc(SC[C@H](Cc2ccccc2)N2CCN(CCc3ccccc3)CCC2=O)cc1
- IC50 [6]: 5.01 µM (not active)

SMILES: CCOc1ccc(NC(=S)NC(=O)/C=C/c2ccc(OC)cc2)c([N+](=O)[O-])c1
- IC50 [6]: 17.2 µM (not active)

SMILES: C/C(CC(=O)Nc1ccccn1)=N\NC(=O)c1ccccc1O
- EC50 [7]: 12.7 µM (active)
- EC50 [8]: 10.9 µM (active)
- EC50 [9]: 14 µM (active)

SMILES: COc1cc(O)oc1/C=N/c1ccc(C(=O)O)cc1
- EC50 [12]: 2.74 µM (active)
- EC50 [13]: > 195 µM (not active)
- EC50 [2]: 10.7 µM (active)
- EC50 (BJ [3]): 9.97 µM (active)
- EC50 [14]: 10.7 µM (active)
- EC50 (BJ [4]): 13.7 µM (active)
- EC50 (BJ [5]): > 150 µM (inconclusive)

SMILES: CC(C)Cn1c(N)c(C(=O)COC(=O)c2ccccc2F)c(=O)n(C)c1=O
- IC50 [6]: > 50 µM (not active)

SMILES: O=C(Nc1cnn(Cc2ccc(F)cc2)c1)c1cc2nc(-c3ccco3)cc(C(F)(F)F)n2n1
- IC50 [6]: 0.777 µM (not active)

SMILES: CCCN1CCC(=NNc2ccc(S(=O)(=O)N3CCOCC3)cc2[N+](=O)[O-])CC1
- EC50 [7]: 6.57 µM (active)
- EC50 [8]: 13.8 µM (active)
- EC50 [9]: 11.1 µM (inconclusive)

SMILES: CCC1CCCCN1C(=O)c1ccc(OC2CCN(C(=O)C3CC3)CC2)cc1 (stereo not given)
- IC50 [6]: > 50 µM (not active)
